Measured values from patent publication EP0100673A2, “A method of enhancing neurofiber regrowth” (THE RESEARCH FOUNDATION OF STATE UNIVERSITY OF NEW YORK, priority 1982, dated 1984).

Columns and labels:
Type in all cases: in vivo, rat
[1] = tested on: muscles of the operated hindlimb; test: Myofiber diameter by light microscopy after sciatic nerve severing and microsurgical repair; settings: for % Difference Treated vs. Control: myofiber diameter
Procedure: (§1) lwenty raty art anenthetizve with sel rompun (0.5 cc total volume). The right sciatic nerve is exposed and severed with microneuroscissors, and subsequently repaired microsurgically with 6-8 circumferential microsutures using 10-0 nylon. Immediately following surgery the treated animals receive 12 mg/kg Ac leupeptin in 5% DMSO (dimethylsulphoxide) as a bath on their sciatic nerve, 0.25 cc. total volume. Then the treated animals are injected intramuscularly in right hindlimb with 0.25 cc of a solution containing 12 mg/kg Ac leupeptin in 5% DMSO. Control animals receive the same surgical treatment, but the bath and intramuscular injection consist only of the solvent and 5% DMSO.
(§2) Thereafter, treated animals are injected twice weekly in the operated hindlimb with 12 mg/kg Ac leupeptin in 5% DMSO (0.25 cc total volume) for periods of 1 week, 1 month, two months, three months - and six months. Control animals are injected with 0.25 cc of 5% DMSO twice weekly in the operated hindlimb for the same time period.
(§3) Two treated and two control animals are assigned to each of the stated time periods.
All animals are sacrified by an overdose of pentobarbital, 1.0 cc total volume. The gastro- cnemius, soleus and extensor digitorum longus muscles of the operated hindlimb are execised from origin to insertion, weighed and then frozen in isopentane in liquid nitrogen […]. For light microscopy, cryostat sections are cut, placed on slides and stained with hematoxylin and eosin and/or ATPase histochemistry at pH's of 4.3 and 10.4. Myofiber diameters are determined by photographing hematoxylin and eosin sections at a constant magnification in the light microscope.

sciatic nerve [2] = test: Counts of myelinated axons 5.0 mm distal to repair by light microscopy; settings: for Counts of Myelinated Axons - 5.0 mm Distal to Repair by Light Microscopy 1.0 X 10^5 µm^2 - of Area: 12 mg/kg in 5% DMSO, bath + i.m. twice weekly; for % Difference Treated vs. Control: myelinated axons distal, light microscopy
Procedure: as §1, §2, §3
(§4) A ten mm. portion of the repaired sciatic nerve is excised from each animal. This is fixed in 3.0% glutaraldehyde in 0.1 M sodium cacodylate, pH 7.3, overnight for electron microscopy. After post-fixation in 1.0% osmium tetroxide, ethanol dehydration and embedding in Polybed 812, both thick (1 micron) and thin (500 A°) transverse sections are cut on a ultramicrotome. Portions of the excised muscles receive similar preparation for electron microscopy.
(§5) Thick sections of the sciatic nerve are placed on microscope slots stained with toluidine blue and photographed at a constant magnification in the light microscope. Thin sections of both nerve and muscles are placed on 300 mesh copper grid calm, stained with uranyl acetate and lead citrate and photographed using a Hitachi HU-12 electron microscope.

sciatic nerve [3] = test: Counts of myelinated axons 5.0 mm proximal to repair by light microscopy; settings: for Counts of Myelinated Axons - 5.0mm. Proximal to Repair by Light Microscopy 1.0 X 10^5 µm^2 - of Area: 12 mg/kg in 5% DMSO, bath + i.m. twice weekly; for % Difference: treated vs. control
Procedure: as §1, §2, §3, §4, §5

sciatic nerve [4] = test: Counts of myelinated and unmyelinated axons 5.0 mm distal to repair by electron microscopy; settings: Electron Microscopy; for #Myelinated Axons / #Unmyelinated Axons: 5.0mm. Distal to Repair, 12 mg/kg in 5% DMSO, bath + i.m. twice weekly
Procedure: as §1, §2, §3, §4, §5

CC(=O)N[C@@H](CC(C)C)C(=O)N[C@@H](CC(C)C)C(=O)N[C@H](C=O)CCCNC(=N)N [Ac leupeptin, acetyl-L-leu-L-leu-L-argininal]
% Difference Treated vs. Control ([1]; One Week, SOLEUS): +9% | % Difference Treated vs. Control ([1]; Six Month, E.D.L.): +29% | % Difference Treated vs. Control ([1]; Six Month, GASTROCNEMIUS): +26% | % Difference Treated vs. Control ([1]; Six Month, SOLEUS): +30% | % Difference Treated vs. Control ([1]; Three Month, E.D.L.): +18% | % Difference Treated vs. Control ([1]; Three Month, GASTROCNEMIUS): +3% | % Difference Treated vs. Control ([1]; Three Month, SOLEUS): +9% | % Difference Treated vs. Control ([1]; Two Month, E.D.L.): +10% | % Difference Treated vs. Control ([1]; Two Month, GASTROCNEMIUS): +18% | % Difference Treated vs. Control ([1]; Two Month, SOLEUS): +10% | myofiber diameter ([1]; treated muscle compared to control): significantly greater myofiber diameter when compared to control | Counts of Myelinated Axons - 5.0 mm Distal to Repair by Light Microscopy 1.0 X 10^5 µm^2 - of Area (sciatic nerve [2]; One Month Treated): 1467 1.0 X 10^5 µm^2 - of Area | Counts of Myelinated Axons - 5.0 mm Distal to Repair by Light Microscopy 1.0 X 10^5 µm^2 - of Area (sciatic nerve [2]; One Week Treated): 722 1.0 X 10^5 µm^2 - of Area | Counts of Myelinated Axons - 5.0 mm Distal to Repair by Light Microscopy 1.0 X 10^5 µm^2 - of Area (sciatic nerve [2]; Six Month Treated): 1620 1.0 X 10^5 µm^2 - of Area | Counts of Myelinated Axons - 5.0 mm Distal to Repair by Light Microscopy 1.0 X 10^5 µm^2 - of Area (sciatic nerve [2]; Three Month Treated): 2808 1.0 X 10^5 µm^2 - of Area | Counts of Myelinated Axons - 5.0 mm Distal to Repair by Light Microscopy 1.0 X 10^5 µm^2 - of Area (sciatic nerve [2]; Two Month Treated): 1625 1.0 X 10^5 µm^2 - of Area | % Difference Treated vs. Control (sciatic nerve [2]; One Month): +2% | % Difference Treated vs. Control (sciatic nerve [2]; One Week): +1% | % Difference Treated vs. Control (sciatic nerve [2]; Six Month): 0% | % Difference Treated vs. Control (sciatic nerve [2]; Three Month): +1% | % Difference Treated vs. Control (sciatic nerve [2]; Two Month): +12% | Counts of Myelinated Axons - 5.0mm. Proximal to Repair by Light Microscopy 1.0 X 10^5 µm^2 - of Area (sciatic nerve [3]; One Month Treated): 1162 1.0 X 10^5 µm^2 - of Area | Counts of Myelinated Axons - 5.0mm. Proximal to Repair by Light Microscopy 1.0 X 10^5 µm^2 - of Area (sciatic nerve [3]; One Week Treated): 1089 1.0 X 10^5 µm^2 - of Area | Counts of Myelinated Axons - 5.0mm. Proximal to Repair by Light Microscopy 1.0 X 10^5 µm^2 - of Area (sciatic nerve [3]; Six Month Treated): 1748 1.0 X 10^5 µm^2 - of Area | Counts of Myelinated Axons - 5.0mm. Proximal to Repair by Light Microscopy 1.0 X 10^5 µm^2 - of Area (sciatic nerve [3]; Three Month Treated): 2200 1.0 X 10^5 µm^2 - of Area | Counts of Myelinated Axons - 5.0mm. Proximal to Repair by Light Microscopy 1.0 X 10^5 µm^2 - of Area (sciatic nerve [3]; Two Month Treated): 1111 1.0 X 10^5 µm^2 - of Area | % Difference Treated Vs. Control (sciatic nerve [3]; myelinated axons proximal, light microscopy, One Month): +7% | % Difference Treated vs. Control (sciatic nerve [3]; myelinated axons proximal, light microscopy, One Week): +16% | % Difference Treated vs. Control (sciatic nerve [3]; myelinated axons proximal, light microscopy, Six Month): +30% | % Difference (sciatic nerve [3]; myelinated axons proximal, light microscopy, Three Month): +46% | % Difference (sciatic nerve [3]; myelinated axons proximal, light microscopy, Two Month): +8% | #Myelinated Axons (sciatic nerve [4]; One month treated): 1.2 Per 200 μm^2 of Area | #Unmyelinated Axons (sciatic nerve [4]; One month treated): 8 Per 200 μm^2 of Area | #Myelinated Axons (sciatic nerve [4]; One week treated): 4.25 Per 200 μm^2 of Area | #Unmyelinated Axons (sciatic nerve [4]; One week treated): 11.0 Per 200 μm^2 of Area | #Myelinated Axons (sciatic nerve [4]; Six Month Treated): 5 Per 200 μm^2 of Area | #Unmyelinated Axons (sciatic nerve [4]; Six Month Treated): 8.7 Per 200 μm^2 of Area | #Myelinated Axons (sciatic nerve [4]; Three month treated): 9.0 Per 200 μm^2 of Area | #Unmyelinated Axons (sciatic nerve [4]; Three month treated): 12.9 Per 200 μm^2 of Area | #Myelinated Axons (sciatic nerve [4]; Two Month Treated): 6 Per 200 μm^2 of Area | #Unmyelinated Axons (sciatic nerve [4]; Two Month Treated): 18 Per 200 μm^2 of Area | % Difference Treated vs. Control (sciatic nerve [4]; #Myelinated Axons distal, One month): 25% | % Difference Treated vs. Control (sciatic nerve [4]; #Myelinated Axons distal, One week): 53% | % Difference Treated vs. Control (sciatic nerve [4]; #Myelinated Axons distal, Six Month): 1% | % Difference Treated vs. Control (sciatic nerve [4]; #Myelinated Axons distal, Three month): 58% | % Difference Treated vs. Control (sciatic nerve [4]; #Myelinated Axons distal, Two Month): 0% | % Difference Treated vs. Control (sciatic nerve [4]; #Unmyelinated Axons distal, One month): 70% | % Difference Treated vs. Control (sciatic nerve [4]; #Unmyelinated Axons distal, One week): >100% | % Difference Treated vs. Control (sciatic nerve [4]; #Unmyelinated Axons distal, Six Month): +30% | % Difference Treated vs. Control (sciatic nerve [4]; #Unmyelinated Axons distal, Three month): 61% | % Difference Treated vs. Control (sciatic nerve [4]; #Unmyelinated Axons distal, Two Month): 50%
